Reference: ChEMBL document CHEMBL3045118, “Synthesis and biological activities of new Mannich bases of chlorokojic acid derivatives” (Med Chem Res, 2011)
Values after ≈ are worked out from the molar mass of the structure shown.

Assays:
Staphylococcus aureus [1] = test: Antibacterial activity against Staphylococcus aureus ATCC 25923 by microdilution method; assay type: functional
Proteus mirabilis [2] = test: Antibacterial activity against ESbetaL positive rimethoprim-sulfamethoxazole, cefepime, tazobactam-resistant Proteus mirabilis by microdilution method; assay type: functional
Enterococcus faecalis [3] = test: Antibacterial activity against Enterococcus faecalis ATCC 29212 by microdilution method; assay type: functional
[4] = Cytotoxicity against Bos taurus (bovine) MDBK cells assessed as maximum non-toxic concentration; assay type: cell-based; settings: cattle, read-out: MNCC
Proteus mirabilis [5] = test: Antibacterial activity against Proteus mirabilis ATCC 7002 by microdilution method; assay type: functional
Acinetobacter baumannii [6] = test: Antibacterial activity against trimethoprim-sulfamethoxazole, cefepime-resistant Acinetobacter baumannii by microdilution method; assay type: functional
Bacillus subtilis [7] = test: Antibacterial activity against Bacillus subtilis ATCC 6633 by microdilution method; assay type: functional
Escherichia coli [8] = test: Antibacterial activity against ESbetaL positive trimethoprim-sulfamethoxazole, cefepime, tazobactam-resistant Escherichia coli isolate by microdilution method; assay type: functional
Acinetobacter baumannii [9] = test: Antibacterial activity against Acinetobacter baumannii RSKK 02026 by microdilution method; assay type: functional
Human respirovirus 3 [10] = test: Antiviral activity against Human parainfluenza virus 3 infected African green monkey Vero cells assessed as concentration required to cause maximum inhibition of virus-induced cytopathic effect; assay type: functional
Klebsiella pneumoniae [11] = test: Antibacterial activity against Klebsiella pneumoniae RSKK 574 by microdilution method; assay type: functional
Escherichia coli [12] = test: Antibacterial activity against Escherichia coli ATCC 35218 by microdilution method; assay type: functional
Staphylococcus aureus [13] = test: Antibacterial activity against oxacillin, gentamicin, aztreonam, trimethoprim-sulfamethoxazole-resistant Staphylococcus aureus by microdilution method; assay type: functional
[14] = Cytotoxicity against Chlorocebus aethiops (African green monkey) Vero cells assessed as maximum non-toxic concentration; assay type: cell-based; settings: chlorocebus sabaeus, read-out: MNCC
Enterococcus faecalis [15] = test: Antibacterial activity against cephalosporins and beta-lactam-resistant Enterococcus faecalis by microdilution method; assay type: functional
Candida parapsilosis = test: Antifungal activity against Candida parapsilosis ATCC 22019 by microdilution method; assay type: functional; settings: Lodderomyces parapsilosis
Klebsiella pneumoniae [16] = test: Antibacterial activity against ESbetaL positive trimethoprim-sulfamethoxazole, amoxicillin clavulonat, cefriaxon, cephepim, aztreonam-resistant Klebsiella pneumoniae by microdilution method; assay type: functional
Bacillus subtilis [17] = test: Antibacterial activity against ceftriaxon-resistant Bacillus subtilis by microdilution method; assay type: functional
Human respirovirus 3 [18] = test: Antiviral activity against Human parainfluenza virus 3 infected African green monkey Vero cells assessed as concentration required to cause minimum inhibition of virus-induced cytopathic effect; assay type: functional
Pseudomonas aeruginosa [19] = test: Antibacterial activity against Pseudomonas aeruginosa ATCC 10145 by microdilution method; assay type: functional
Pseudomonas aeruginosa [20] = test: Antibacterial activity against trimethoprim-sulfamethoxazole, tazobactam-resistant Pseudomonas aeruginosa by microdilution method; assay type: functional
Candida albicans = test: Antifungal activity against Candida albicans ATCC 10231 by microdilution method; assay type: functional
Human alphaherpesvirus 1 [21] = test: Antiviral activity against Human herpesvirus 1 infected bovine MDBK cells assessed as concentration required to cause maximum inhibition of virus-induced cytopathic effect; assay type: functional
Human alphaherpesvirus 1 [22] = test: Antiviral activity against Human herpesvirus 1 infected bovine MDBK cells assessed as concentration required to cause minimum inhibition of virus-induced cytopathic effect; assay type: functional

| SMILES | MIC (Staphylococcus aureus [1]) [µg/mL] | MIC (Proteus mirabilis [2]) [µg/mL] | MIC (Enterococcus faecalis [3]) [µg/mL] | MNTC [4] [µg/mL] | MIC (Proteus mirabilis [5]) [µg/mL] | MIC (Acinetobacter baumannii [6]) [µg/mL] | MIC (Bacillus subtilis [7]) [µg/mL] | MIC (Escherichia coli [8]) [µg/mL] | MIC (Acinetobacter baumannii [9]) [µg/mL] | Activity (Human respirovirus 3 [10]) [µg/mL] | MIC (Klebsiella pneumoniae [11]) [µg/mL] | MIC (Escherichia coli [12]) [µg/mL] | MIC (Staphylococcus aureus [13]) [µg/mL] | MNTC [14] [µg/mL] | MIC (Enterococcus faecalis [15]) [µg/mL] | MIC (Candida parapsilosis) [µg/mL] | MIC (Klebsiella pneumoniae [16]) [µg/mL] | MIC (Bacillus subtilis [17]) [µg/mL] | Activity (Human respirovirus 3 [18]) [µg/mL] | MIC (Pseudomonas aeruginosa [19]) [µg/mL] | further results |
| --- | --- | --- | --- | --- | --- | --- | --- | --- | --- | --- | --- | --- | --- | --- | --- | --- | --- | --- | --- | --- | --- |
| O=c1cc(CCl)oc(CN2CCN(c3ccc(Cl)c(Cl)c3)CC2)c1O | 8 (≈ 19.8 µM) | 64 | 8 (≈ 19.8 µM) | 1.6 | 32 (≈ 79.3 µM) | 32 (≈ 79.3 µM) | 16 (≈ 39.6 µM) | 64 | 64 (≈ 159 µM) | 0.4 | 32 (≈ 79.3 µM) | 64 (≈ 159 µM) | 64 (≈ 159 µM) | 0.4 | 64 (≈ 159 µM) | 16 (≈ 39.6 µM) | 64 (≈ 159 µM) | 64 (≈ 159 µM) | 0.05 | 16 (≈ 39.6 µM) | MIC (Pseudomonas aeruginosa [20]): 64 µg/mL; MIC (Candida albicans): 16 µg/mL (≈ 39.6 µM); Activity (Human alphaherpesvirus 1 [21]): 0.4 µg/mL; Activity (Human alphaherpesvirus 1 [22]): 0.1 µg/mL |
| O=c1cc(CCl)oc(CN2CCN(c3ccc(Cl)cc3)CC2)c1O | 8 (≈ 21.7 µM) | > 128 | 8 (≈ 21.7 µM) | 1.6 | 64 (≈ 173 µM) | > 128 | 16 (≈ 43.3 µM) | > 128 | 64 (≈ 173 µM) | 0.4 | 64 (≈ 173 µM) | 64 (≈ 173 µM) | > 128 | 0.4 | > 128 | 16 (≈ 43.3 µM) | > 128 | > 128 | 0.025 | 64 (≈ 173 µM) | MIC (Pseudomonas aeruginosa [20]): > 128 µg/mL; MIC (Candida albicans): 16 µg/mL (≈ 43.3 µM); Activity (Human alphaherpesvirus 1 [21]): 0.4 µg/mL; Activity (Human alphaherpesvirus 1 [22]): 0.1 µg/mL |
| COc1cccc(N2CCN(Cc3oc(CCl)cc(=O)c3O)CC2)c1 | 64 (≈ 175 µM) | 64 | 64 (≈ 175 µM) | 0.8 | 32 (≈ 87.7 µM) | 64 (≈ 175 µM) | 16 (≈ 43.9 µM) | 64 | 32 (≈ 87.7 µM) | 0.4 | 32 (≈ 87.7 µM) | 32 (≈ 87.7 µM) | 128 (≈ 351 µM) | 1.6 | 128 (≈ 351 µM) | 8 (≈ 21.9 µM) | 64 (≈ 175 µM) | 32 (≈ 87.7 µM) | 0.1 | 32 (≈ 87.7 µM) | MIC (Pseudomonas aeruginosa [20]): 64 µg/mL; MIC (Candida albicans): 8 µg/mL (≈ 21.9 µM); Activity (Human alphaherpesvirus 1 [21]): 0.8 µg/mL; Activity (Human alphaherpesvirus 1 [22]): 0.2 µg/mL |
| O=c1cc(CCl)oc(CN2CCN(c3ccccc3Cl)CC2)c1O | 8 (≈ 21.7 µM) | > 128 | 8 (≈ 21.7 µM) | 1.6 | 64 (≈ 173 µM) | > 128 | 16 (≈ 43.3 µM) | > 128 | 64 (≈ 173 µM) | 0.4 | 64 (≈ 173 µM) | 64 (≈ 173 µM) | > 128 | 0.4 | > 128 | 16 (≈ 43.3 µM) | > 128 | > 128 | 0.2 | 64 (≈ 173 µM) | MIC (Pseudomonas aeruginosa [20]): > 128 µg/mL; MIC (Candida albicans): 16 µg/mL (≈ 43.3 µM); Activity (Human alphaherpesvirus 1 [21]): 0.4 µg/mL; Activity (Human alphaherpesvirus 1 [22]): 0.1 µg/mL |
| O=c1cc(CCl)oc(CN2CCN(c3ccc(F)cc3)CC2)c1O | 16 (≈ 45.4 µM) | 64 | 16 (≈ 45.4 µM) | 0.8 | 16 (≈ 45.4 µM) | 64 (≈ 181 µM) | 16 (≈ 45.4 µM) | 64 | 32 (≈ 90.7 µM) | 0.2 | 16 (≈ 45.4 µM) | 16 (≈ 45.4 µM) | 64 (≈ 181 µM) | 1.6 | 32 (≈ 90.7 µM) | 8 (≈ 22.7 µM) | 64 (≈ 181 µM) | 32 (≈ 90.7 µM) | 0.025 | 32 (≈ 90.7 µM) | MIC (Pseudomonas aeruginosa [20]): 64 µg/mL; MIC (Candida albicans): 8 µg/mL (≈ 22.7 µM); Activity (Human alphaherpesvirus 1 [21]): 0.8 µg/mL; Activity (Human alphaherpesvirus 1 [22]): 0.05 µg/mL |
